Laboratory results: ChEMBL document CHEMBL2321709, “Acetylcholinesterase immobilized capillary reactors-tandem mass spectrometry: an on-flow tool for ligand screening” (J Med Chem, 2013)

Experiments:
[1] = biological target: Acetylcholinesterase (Electrophorus electricus) (UniProt O42275); assay: Inhibition of Electrophorus electricus AChE using acetylcholine as substrate by chromatography relative to control; conditions: concentration not given here
Acetylcholinesterase = Acetylcholinesterase (Electrophorus electricus, UniProt O42275); assay: Competitive inhibition of Electrophorus electricus AChE using acetylcholine as substrate by Lineweaver-Burk plot method
Acetylcholinesterase, sequence (O42275 whole entry): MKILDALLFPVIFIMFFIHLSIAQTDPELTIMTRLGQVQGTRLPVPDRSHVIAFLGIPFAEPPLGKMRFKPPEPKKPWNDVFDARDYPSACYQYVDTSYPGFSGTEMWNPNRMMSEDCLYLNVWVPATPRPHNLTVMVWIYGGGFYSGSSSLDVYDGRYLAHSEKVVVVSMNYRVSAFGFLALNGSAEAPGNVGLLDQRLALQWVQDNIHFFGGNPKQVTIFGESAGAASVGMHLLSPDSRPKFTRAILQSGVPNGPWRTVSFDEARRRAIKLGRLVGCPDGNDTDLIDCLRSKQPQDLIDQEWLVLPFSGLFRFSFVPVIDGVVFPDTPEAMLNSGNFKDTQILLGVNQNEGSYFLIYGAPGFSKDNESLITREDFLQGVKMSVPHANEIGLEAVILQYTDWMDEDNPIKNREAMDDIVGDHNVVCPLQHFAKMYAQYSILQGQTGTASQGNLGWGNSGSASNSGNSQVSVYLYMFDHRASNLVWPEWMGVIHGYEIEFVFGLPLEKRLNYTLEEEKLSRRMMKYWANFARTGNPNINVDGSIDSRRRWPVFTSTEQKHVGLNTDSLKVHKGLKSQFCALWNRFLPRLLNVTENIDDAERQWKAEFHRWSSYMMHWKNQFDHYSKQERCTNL

Acetylcholinesterase (Electrophorus electricus), sequence (O42275 24-633 limits assumed): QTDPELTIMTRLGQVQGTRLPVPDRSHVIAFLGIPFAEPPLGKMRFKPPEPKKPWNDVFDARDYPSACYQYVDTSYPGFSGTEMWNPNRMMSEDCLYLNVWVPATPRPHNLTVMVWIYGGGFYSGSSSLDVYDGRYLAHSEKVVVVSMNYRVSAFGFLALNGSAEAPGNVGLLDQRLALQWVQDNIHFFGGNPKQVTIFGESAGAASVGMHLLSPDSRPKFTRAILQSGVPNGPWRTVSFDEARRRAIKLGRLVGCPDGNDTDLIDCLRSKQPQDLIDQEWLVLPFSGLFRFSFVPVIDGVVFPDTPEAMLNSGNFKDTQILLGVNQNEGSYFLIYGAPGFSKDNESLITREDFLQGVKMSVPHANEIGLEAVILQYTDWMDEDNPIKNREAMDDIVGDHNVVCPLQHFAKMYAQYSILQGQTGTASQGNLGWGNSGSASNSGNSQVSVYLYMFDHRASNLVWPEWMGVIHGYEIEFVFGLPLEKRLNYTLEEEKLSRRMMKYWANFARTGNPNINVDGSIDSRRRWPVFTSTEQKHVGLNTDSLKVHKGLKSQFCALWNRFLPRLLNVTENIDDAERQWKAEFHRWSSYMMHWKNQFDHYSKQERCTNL

SMILES | inhibition [1] [%] | IC50 (Acetylcholinesterase) [µM] | Ki (Acetylcholinesterase) [µM]
CCOC(=O)c1cc2ccc(OCCN3CCCCC3)cc2oc1=O | > 80 | 0.356 | 0.031
O=C(NCCN1CCCCC1)c1cc2ccccc2oc1=O | > 80 | 12.6 | 13.8
